Patent US20060069132A1, “Azolecarboxamide herbicides” (priority 2004, published 2006)
Read-outs that look alike come from different tables or passages of the source.

What was measured:
[1] = system: barnyardgrass; assay: Test B pre-/postemergence herbicide test; format: in vivo, Echinochloa crus-galli; conditions: Echinochloa crus-galli; for pest or weed control at 125 g/ha: 125 g ai/ha; for pest or weed control at 500 g/ha: 500 g ai/ha
Summary of the method: (§1)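 Greenhouse pot assay with simultaneous preemergence (treated seed) and postemergence (2–18 cm seedlings) applications of surfactant-containing, non-phytotoxic solvent formulations. Response scored visually 13–15 days later on a 0–100 scale, 100 meaning complete control.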

[2] = system: Surinam grass; assay: Test B pre-/postemergence herbicide test; format: in vivo, Urochloa decumbens; conditions: Urochloa decumbens; for pest or weed control at 125 g/ha: 125 g ai/ha; for pest or weed control at 500 g/ha: 500 g ai/ha
Summary of the method: (§2)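 Flooded paddy rice and barnyardgrass were treated at the 2-leaf stage; upland plantings received compound either on sown seed or on 1- to 4-leaf seedlings. All were kept 13–15 days in a greenhouse and scored visually, 0–100, relative to untreated plants.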

[3] = system: cocklebur; assay: Test B pre-/postemergence herbicide test; format: in vivo, Xanthium strumarium; conditions: Xanthium strumarium; for pest or weed control at 125 g/ha: 125 g ai/ha; for pest or weed control at 500 g/ha: 500 g ai/ha
Summary of the method: as §1

[4] = system: corn; assay: Test B pre-/postemergence herbicide test; format: in vivo, Zea mays; conditions: Zea mays; for plant injury at 125 g/ha: 125 g ai/ha
Summary of the method: as §2

[5] = system: large crabgrass; assay: Test B pre-/postemergence herbicide test; format: in vivo, Digitaria sanguinalis; conditions: Digitaria sanguinalis; for pest or weed control at 125 g/ha: 125 g ai/ha; for pest or weed control at 500 g/ha: 500 g ai/ha
Summary of the method: as §2

[6] = system: giant foxtail; assay: Test B pre-/postemergence herbicide test; format: in vivo, Setaria faberi; conditions: Setaria faberi, 336 h; for pest or weed control at 125 g/ha: 125 g ai/ha; for pest or weed control at 500 g/ha: 500 g ai/ha
Summary of the method: as §2

[7] = system: morningglory; assay: Test B pre-/postemergence herbicide test; format: in vivo, Ipomoea coccinea; conditions: Ipomoea, 336 h, visual rating; for pest or weed control at 500 g/ha: 500 g ai/ha
Summary of the method: as §1

[8] = system: pigweed; assay: Test B pre-/postemergence herbicide test; format: in vivo, Amaranthus retroflexus; conditions: Amaranthus retroflexus, 336 h; for pest or weed control at 125 g/ha: 125 g ai/ha; for pest or weed control at 500 g/ha: 500 g ai/ha
Summary of the method: as §2

[9] = system: velvetleaf; assay: Test B pre-/postemergence herbicide test; format: in vivo, Abutilon theophrasti; conditions: Abutilon theophrasti, 336 h; for pest or weed control at 125 g/ha: 125 g ai/ha; for pest or weed control at 500 g/ha: 500 g ai/ha
Summary of the method: as §2

[10] = system: blackgrass; assay: Test B postemergence herbicide test; format: in vivo, Alopecurus myosuroides; conditions: Alopecurus myosuroides, post-emergence, 336 h, postemergence, visual rating, scale 0 (no effect) to 100 (complete control), read-out: Blackgrass plant response rating
Summary of the method: (§3)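 Greenhouse test; postemergence application to plants at 1–4 leaves (2–18 cm); paddy species at 2 leaves; evaluated visually vs controls at 13–15 days; scale 0–100 (100 = complete control).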

[11] = system: wheat; assay: Test B postemergence herbicide test; format: in vivo, Triticum aestivum; conditions: Triticum aestivum, post-emergence, 336 h, postemergence, visual rating, scale 0 (no effect) to 100 (complete control), read-out: Wheat plant response rating
Summary of the method: (§4)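 Each value is a visual 0–100 response rating taken against controls 13 to 15 days after treatment in the greenhouse. Plants received formulated chemical postemergence at the 1- to 4-leaf stage or, in flooded paddy, at the 2-leaf stage.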

[12] = system: wild oat; assay: Test B postemergence herbicide test; format: in vivo, Avena fatua; conditions: Avena fatua, post-emergence, 336 h, postemergence, visual rating, scale 0 (no effect) to 100 (complete control), read-out: Oat, Wild plant response rating
Summary of the method: as §4

[13] = system: rice; assay: Test B flooded paddy test; format: in vivo, Oryza sativa; conditions: Oryza sativa, 336 h, 1000 g ai/ha, visual rating, scale 0 to 100 (0 no effect, 100 complete control), 13 to 15 days, read-out: Rice plant response rating
Summary of the method: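 After treating 2-leaf paddy plants or 2–18 cm postemergence plants (1 to 4 leaves) with formulated chemical, researchers kept them in a greenhouse for 13–15 days. Effects were judged visually versus controls: 0 indicates none, 100 total control.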

[14] = system: small flower umbrella sedge; assay: Test B flooded paddy test; format: in vivo, Cyperus difformis; conditions: Cyperus difformis, 336 h, 1000 g ai/ha, visual rating, scale 0 to 100 (0 no effect, 100 complete control), 13 to 15 days, read-out: Sedge, Umbrella plant response rating
Summary of the method: as §3

[15] = system: ducksalad; assay: Test B flooded paddy test; format: in vivo, Heteranthera limosa; conditions: Heteranthera limosa, 336 h, 1000 g ai/ha, visual rating, scale 0 to 100 (0 no effect, 100 complete control), 13 to 15 days, read-out: Ducksalad plant response rating
Summary of the method: as §3

[16] = post-emergence, postemergence, visual rating, scale 0 (no effect) to 100 (complete control), read-out: Barnyardgrass plant response rating
[17] = post-emergence, postemergence, visual rating, scale 0 (no effect) to 100 (complete control), read-out: Surinam Grass plant response rating
[18] = post-emergence, postemergence, visual rating, scale 0 (no effect) to 100 (complete control), read-out: Cocklebur plant response rating
[19] = post-emergence, postemergence, visual rating, scale 0 (no effect) to 100 (complete control), read-out: Crabgrass, Large plant response rating
[20] = post-emergence, postemergence, visual rating, scale 0 (no effect) to 100 (complete control), read-out: Foxtail, Giant plant response rating
[21] = post-emergence, postemergence, visual rating, scale 0 (no effect) to 100 (complete control), read-out: Pigweed plant response rating
[22] = post-emergence, postemergence, visual rating, scale 0 (no effect) to 100 (complete control), read-out: Velvetleaf plant response rating

SMILES: CCc1nn(C(C)(C)C)cc1C(=O)Nc1cc(C(=O)N(C)C)ccc1F [Compound 222, N-[5-[(dimethylamino)carbonyl]-2-fluorophenyl]-1-(1,1-dimethylethyl)-3-ethyl-1H-pyrazole-4-carboxamide]
- pest or weed control at 125 g/ha [1, 16]: 10%
- pest or weed control at 500 g/ha [1, 16]: 20%
- pest or weed control at 125 g/ha ([1]; pre-emergence, 0 = no effect, 100 = complete control, read-out: Barnyardgrass plant response rating (0 to 100 scale)): 90%
- pest or weed control at 500 g/ha ([1]; pre-emergence, visual rating, 0 = no effect, 100 = complete control, read-out: Plant response rating, Barnyardgrass): 100%
- pest or weed control at 125 g/ha [2, 17]: 10%
- pest or weed control at 500 g/ha [2, 17]: 30%
- pest or weed control at 125 g/ha ([2]; pre-emergence, 0 = no effect, 100 = complete control, read-out: Surinam Grass plant response rating (0 to 100 scale)): 90%
- pest or weed control at 500 g/ha ([2]; pre-emergence, visual rating, 0 = no effect, 100 = complete control, read-out: Plant response rating, Surinam Grass): 100%
- pest or weed control at 125 g/ha [3, 18]: 20%
- pest or weed control at 500 g/ha [3, 18]: 60%
- pest or weed control at 125 g/ha ([3]; pre-emergence, 0 = no effect, 100 = complete control, read-out: Cocklebur plant response rating (0 to 100 scale)): 30%
- pest or weed control at 500 g/ha ([3]; pre-emergence, visual rating, 0 = no effect, 100 = complete control, read-out: Plant response rating, Cocklebur): 80%
- plant injury at 125 g/ha ([4]; post-emergence, postemergence, visual rating, scale 0 (no effect) to 100 (complete control), read-out: Corn plant response rating): 0%
- plant injury at 500 g/ha ([4]; post-emergence, postemergence, 500 g ai/ha, visual rating, scale 0 (no effect) to 100 (complete control), read-out: Corn plant response rating): 20%
- plant injury at 125 g/ha ([4]; pre-emergence, 0 = no effect, 100 = complete control, read-out: Corn plant response rating (0 to 100 scale)): 60%
- Corn plant response rating (crop injury, 0 = no effect, 100 = complete kill) at 500 g/ha ([4]; pre-emergence, 500 g ai/ha, visual rating, 0 = no effect, 100 = complete control): 90%
- pest or weed control at 125 g/ha [5, 19]: 10%
- pest or weed control at 500 g/ha [5, 19]: 20%
- pest or weed control at 125 g/ha ([5]; pre-emergence, 0 = no effect, 100 = complete control, read-out: Crabgrass, Large plant response rating (0 to 100 scale)): 90%
- pest or weed control at 500 g/ha ([5]; pre-emergence, visual rating, 0 = no effect, 100 = complete control, read-out: Plant response rating, Crabgrass, Large): 100%
- pest or weed control at 125 g/ha [6, 20]: 10%
- pest or weed control at 500 g/ha [6, 20]: 30%
- pest or weed control at 125 g/ha ([6]; pre-emergence, 0 = no effect, 100 = complete control, read-out: Foxtail, Giant plant response rating (0 to 100 scale)): 60%
- pest or weed control at 500 g/ha ([6]; pre-emergence, visual rating, 0 = no effect, 100 = complete control, read-out: Plant response rating, Foxtail, Giant): 90%
- pest or weed control at 125 g/ha ([7]; post-emergence, postemergence, 125 g ai/ha, scale 0 (no effect) to 100 (complete control), read-out: Morningglory plant response rating): 40%
- pest or weed control at 500 g/ha ([7]; post-emergence, postemergence, scale 0 (no effect) to 100 (complete control), read-out: Morningglory plant response rating): 80%
- pest or weed control at 500 g/ha ([7]; pre-emergence, 0 = no effect, 100 = complete control, read-out: Plant response rating, Morningglory): 100%
- pest or weed control at 125 g/ha [8, 21]: 40%
- pest or weed control at 500 g/ha [8, 21]: 60%
- pest or weed control at 125 g/ha ([8]; pre-emergence, 0 = no effect, 100 = complete control, read-out: Pigweed plant response rating (0 to 100 scale)): 90%
- pest or weed control at 500 g/ha ([8]; pre-emergence, visual rating, 0 = no effect, 100 = complete control, read-out: Plant response rating, Pigweed): 100%
- pest or weed control at 125 g/ha [9, 22]: 50%
- pest or weed control at 500 g/ha [9, 22]: 60%
- pest or weed control at 125 g/ha ([9]; pre-emergence, 0 = no effect, 100 = complete control, read-out: Velvetleaf plant response rating (0 to 100 scale)): 100%
- pest or weed control at 500 g/ha ([9]; pre-emergence, visual rating, 0 = no effect, 100 = complete control, read-out: Plant response rating, Velvetleaf): 100%
- pest or weed control at 125 g/ha ([10]; 125 g ai/ha): 0%
- pest or weed control at 500 g/ha ([10]; 500 g ai/ha): 20%
- plant injury at 125 g/ha ([11]; 125 g ai/ha): 0%
- plant injury at 500 g/ha ([11]; 500 g ai/ha): 20%
- pest or weed control at 125 g/ha ([12]; 125 g ai/ha): 0%
- pest or weed control at 500 g/ha ([12]; 500 g ai/ha): 20%
- plant injury at 1000 g/ha [13]: 90%
- pest or weed control at 1000 g/ha [14]: 70%
- pest or weed control at 1000 g/ha [15]: 80%
